Source: ChEMBL document CHEMBL5365417, “The development of diphenyleneiodonium analogs as GPR3 agonists” (Bioorg Med Chem Lett, 2023)

Assays:
[1] = target: T1, G-protein coupled receptor 3 (Homo sapiens, UniProt P46089); assay: Agonist activity at human GPR3 expressed in HEK293 cells assessed as increase in cAMP accumulation incubated for 30 mins by HTRF assay; type: functional, cell-based
[2] = target: T1, G-protein coupled receptor 3; assay: Agonist activity at human GPR3 expressed in HEK293 cells assessed as increase in cAMP accumulation at 1 uM incubated for 30 mins by AlphaScreen assay relative to control; type: functional, cell-based

T1 sequence (P46089 whole entry): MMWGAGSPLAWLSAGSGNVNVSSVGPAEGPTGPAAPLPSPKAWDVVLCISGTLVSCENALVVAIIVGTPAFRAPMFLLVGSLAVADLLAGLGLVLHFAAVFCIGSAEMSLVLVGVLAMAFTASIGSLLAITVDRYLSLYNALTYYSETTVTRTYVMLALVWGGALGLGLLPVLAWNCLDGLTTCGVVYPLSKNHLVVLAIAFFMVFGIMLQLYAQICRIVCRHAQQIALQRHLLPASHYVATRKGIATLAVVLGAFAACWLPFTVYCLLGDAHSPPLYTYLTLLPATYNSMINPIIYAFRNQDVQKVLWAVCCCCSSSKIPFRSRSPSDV

| SMILES | EC50 [1] | Activity [2] |
| --- | --- | --- |
| Cn1c2ccccc2c2ccccc21 | 40 µM |  |
| C[N+]1(C)c2ccccc2-c2ccccc21 | 114 µM |  |
| c1ccc2c(c1)sc1ccccc12 [DIBENZOTHIOPHENE] | 81 µM |  |
| Fc1ccc2c(c1)oc1ccccc12 | 105 µM |  |
| CCCCCCCCCCCCC/C=C/[C@@H](O)[C@@H](N)COP(=O)(O)O |  | 20% |
| O=S1(=O)c2ccccc2-c2ccccc21 | 5.1 µM |  |
| NC1c2ccccc2-c2ccccc21 | > 100 µM |  |
| O=[N+]([O-])c1ccc2c(c1)[I+]c1ccccc1-2 | 1.34 µM |  |
| c1ccc2c(c1)[nH]c1ccccc12 [CARBAZOLE] | 7.6 µM |  |

Continued, in another order:

| EC50 [1] | SMILES | Activity [2] |
| --- | --- | --- |
| 45 µM | O=c1[nH]c2ccccc2c2ccccc12 |  |
| 382 µM | C[n+]1cc2ccccc2c2ccccc21 |  |
| 67 µM | c1ccc2c(c1)cnc1ccccc12 [PHENANTHRIDINE] |  |
| 158 µM | O=CNC1c2ccccc2-c2ccccc21 |  |
| 66 µM | CC(C)(C)[S+]([O-])N=C1c2ccccc2-c2ccccc21 (stereo not given) |  |
| 21 µM | CN(C)C1c2ccccc2-c2ccccc21 |  |
| 19.3 µM | FC1(F)Oc2cc3c(cc2O1)-c1ccccc1[I+]3 |  |
| > 100 µM | CC1(N)c2ccccc2-c2ccccc21 |  |
| > 100 µM | CN(C)C1(C)c2ccccc2-c2ccccc21 |  |
| 86 µM | Cc1nc2ccccc2c2ccccc12 |  |
| 60 µM | CC1c2ccccc2-c2ccccc2N1C (stereo not given) |  |
